The subject of data set [1] is ovariectomized female rats. The data set can be described thus: SERM comparison, energy balance and lipid-lipoprotein metabolism (Example 10). Format: in vivo, Rattus norvegicus. The following applies: OVX rats, 20 days. How it is done:
For this purpose, tested compounds were administered by oral gavage for 20 days (0.5 mg/rat for each compound; 0.5 ml/rat) in 0.4% methylcellulose to ovariectomized female rats.
d) Diet: • During acclimation period, rats received a certified rodent diet (Lab Diet #5002, pellet) and tap water ad libitum while during study period, they received a high carbonhydrate diet (diet #3) and tap water ad libitum. The diet was composed of (g/100 g): Corn starch, 31.2; Dextrose, 31.2; Casein, 20.0; corn oil, 6.4; dl-Methionine, 0.3; Vitamine mix, 1.0; AIN-76 mineral mix, 4.9; fiber, 5.0. Rats were fasted (with access to water only) around 07 h00 the morning of their necropsy Randomization:
Test group: Seventy-seven rats were assigned to 8 groups of 9-10 rats for conduct of the study outlined below.
On day 0 of the study, rats from group 2 to 8 were ovariectomized (by bilateral flank incision) under Isoflurane anesthesia. Rats from group 1 were sham-operated.
Rats were weighed on day 0 (surgery) and then, every 2 days during study period as well as on the day of necropsy.
Food consumption was evaluated every 2 days.
In order to determine the effect of treatments on fat percentage, body composition was measured on Day 17 of the study using dual energy x-ray absorptiometry (DEXA; QDR 4500A, Hologic, Waltham, Mass.).
On day 21 of the study, approximately 24 hours after the last dosing and 6 hours of fasting, animals under Ketamine-Xylazine anesthesia were killed by exsanguination at the abdominal aorta.
Blood lipids (Total cholesterol and Triglycerides) and glucose were measured on frozen serum samples using the Boehringer Mannheim Diagnostic Hitachi 911 Analyzer (Boehringer Mannheim Diagnostic Laboratory Systems). Circulating hormones and substrates (Insulin and leptin) were measured on serum sample using the following kits: • Insulin: Linco RIA kit • Leptin: Linco RIA kit Organs and Tissues Collected
The following tissues were collected and weighed: • Muscle (right soleus and right VLM), fat (right retroperitoneal and right inguinal), and brown adipose tissue.
A piece of ˜0.1 g of all tissues (except uterus and vagina) were frozen in liquid nitrogen and kept at −80 C for later determination of lipoprotein-lipase (LPL) activity.

The subject of data set [2] is human breast cancer MCF-7 cells. The experiment in a line: Proliferation of MCF-7 cell line, DNA content (Example 12). Format: cell-based. To be noted: MCF-7 cells. An excerpt: MCF-7 human breast cancer cells were obtained from the American Type Culture Collection # HTB 22 at passage 147 and routinely grown in phenol red-free Dulbecco's Modified Eagle's-Ham's F12 medium, the supplements mentioned above and 5% FBS. The MCF-7 human breast adenocarcinoma cell line was derived from the pleural effusion of a patient. MCF-7 cells were used between passages 148 and 165 and subcultured weekly.
Cells in their late logarithmic growth phase were harvested with 0.1% pancreatin (Sigma) and resuspended in the appropriate medium containing 50 ng bovine insulin/ml and 5% (v/v) FBS treated twice with dextran-coated charcoal to remove endogenous steroids. Cells were plated in 24-well Falcon plastic culture plates (2 cm2/well) at the indicated density and allowed to adhere to the surface of the plates for 72 h. […] Control cells received only the ethanolic vehicle (0.1% EtOH,v/v). Cells were incubated for the specified time intervals with medium changes at 2- or 3-day intervals. Cell number was determined by measurement of DNA content.
Dose-response curves as well IC50 values were calculated using a weighted iterative nonlinear least-squares regression. All results are expressed as means±SEM.

In data set [3] the test system is ovariectomized female rats. The experiment in a line: Uterine weight, fat and lipid, 20-day treatment (Example 13). Format: in vivo, Rattus norvegicus. The following applies: 20 days. How it is done: The objective of this study was to compare the effect on uterine, weight, fat and blood lipids following treatment with EM-652.HCl, ERA-923 and lasofoxifene, administered alone or in combination with EM-652.HCl, to ovariectomized female rats. For this purpose, each compound was administered orally for 20 days to ovariectomized female rats and at the end of the treatment period, the uterus and fat were collected and weighed.
d) Diet: • Certified Rodent feed (Lab Diet #5002, pellets) and tap water were provided ad libitum. Randomization:
Seventy rats were separated into 7 groups of 9 to 11 animals for conduct of the study outlined below:
Animals from groups 2 to 9 were ovariectomized under Isoflurane-induced anesthesia on Day 7 of the study.
The vehicle or tested compounds were given as suspension in 0.4% methylcellulose by oral gavage (0.5 ml/gavage/rat) from Day 2 to Day 21 of the study.
Rats were weighed on Study Day 1 and at the necropsy (SD 22).
Approximately 24 hours after the last dosing, overnight fasted rats under Isoflurane-induced anesthesia were killed by exsanguination at the abdominal aorta.
Uteri and retroperitonal adipose tissue were removed and weighed.

In another data set the test system is intact female rats. The experiment in a line: 6-month treatment, fat accumulation in intact female rats receiving or not LHRH-A (Example 5). Format: in vivo, Rattus norvegicus. To be noted: 6-month LHRH-A treatment. Here is the method: The objective of this study is to determine the effect on fat of treatment with EM-652.HCl and dehydroepiandrosterone (DHEA) in intact female rats receiving or not a luteinizing hormone releasing hormone agonist (LHRH-A, LHRH ethylamide diacetate). For this purpose, intact female rats, treated or not with LHRH-A (2 μg/rat), received daily administration of EM-652.HCl (2.5 mg/kg) and DHEA (100 mg/kg), alone or in combination, for 6 months. EM-652.HCl was administered orally, DHEA was applied topically while LHRH-A was injected subcutaneously. All treatments were administered once daily.
One hundred twenty rats were separated into 8 groups of 15 animals for conduct of the study outlined below:
The LHRH-A is available in solution at a concentration of 1.0 mg/ml. We diluted this concentrated solution (in order to obtain a final concentration of 0.004 mg/ml) by using the following vehicle: 0.3% Sodium Chloride and 0.25% Sodium Phosphate monobasic, monohydrate in water. The sodium hydroxide (aqueous) was used to adjust the pH between 5.6-6.2.
Dosing suspensions/solutions were prepared every two weeks according to the most recent body weight (group mean) except for the LHRH-A solution. For EM-652.HCl administered orally, the vehicle (0.4% methylcellulose) was added to the tested compound, previously weighed into a glass bottle, at least 48 hours prior to the first dosing day. To ensure the homogeneity of dosing suspension, it was stirred at least 48 hours at 2 to 8 C. Dosing suspension was kept at 2 to 8 C. For DHEA solution applied topically, the ethanol was added to DHEA and the mix were agitated until dissolution of DHEA. Then, the polypropylene glycol was added and the solution agitated until homogeneity. Dosing solution was kept at 2 to 8 C. For LHRH-A solution injected subcutaneously, a dilution of the concentrated solution using the appropriate vehicle was prepared every month. Dosing solution was kept at 2 to 8 C.
The administration of tested compounds or vehicle was given from on Study Day 1 of the protocol. The tested compounds were given as suspension in 0.4% methylcellulose by oral gavage (0.5 ml/gavage/rat) once daily or were applied topically in 50% ethanol-50% propylene glycol (0.5 ml/application/rat) once daily. Rats from groups 5 to 8 received also the LHRH-A once daily by subcutaneous injection (0.5 ml/injection/rat). Rats not receiving a tested compound orally and/or topically received the appropriate vehicle alone.
Body composition was measured on whole skeleton of animal under Isoflurane-induced anesthesia using dual energy x-ray absorptiometry (DEXA; QDR 4500A, Hologic) during the acclimation period and after 6 months of treatment.

Where [4] appears, read: high carbohydrate diet, 0.5 mg/rat oral gavage.
Setting [5] is: OVX rats, commercial rodent diet, 0.5 mg oral, EM-652.HCl 2.5 mg in combinations.

As for `Cc1c(-c2ccc(O)cc2)n(Cc2ccc(OCCN3CCCCC3)cc2)c2ccc(O)cc12` [ERA-923], in data set [1] (0.5 mg/rat), the “Serum insulin (in words)” value is listed as “decreased”. For the same compound, in data set [1] (setting [4]), the “Brown adipose tissue Lipoprotein lipase activity” value amounted to 1017 ± 83 μU/g protein, the “Brown adipose tissue weight” value is on record as 0.350 ± 0.019 g, the Cumulative food intake was 347 ± 9 g and the Serum glucose came out at 16.5 ± 2.7 mmol/L. In data set [1] (setting [4]), this compound came in with a Serum insulin of 0.113 ± 0.029 nmol/L, a Serum leptin of 2.12 ± 0.44 ng/mL, a Serum total cholesterol of 1.66 ± 0.16 mmol/L and a Serum triglycerides of 0.93 ± 0.24 mmol/L. In addition, in data set [1] (setting [4]), the “Soleus muscle Lipoprotein lipase activity” value came to 11.7 ± 1.9 μU/g protein, the Soleus muscle weight is reported as 0.100 ± 0.004 g, the Total weight was determined as 260 ± 5 g and the VastusLateralis muscle weight is given as 0.993 ± 0.33 g. In addition, in data set [1] (setting [4]), the “White adipose tissue inguinal Lipoprotein lipase activity” value turned out to be 766 ± 173 μU/g protein, the “White adipose tissue inguinal weight” value is given as 0.326 ± 0.042 g, the “White adipose tissue retroperitoneal Lipoprotein lipase activity” value was determined as 1750 ± 140 μU/g protein and the “White adipose tissue retroperitoneal weight” value is recorded as 1.27 ± 0.15 g. The EC50 in data set [2] (Homo sapiens, MCF7, text summary of table 12, read-out: EC50 of inhibition (antiestrogen activity)) is 3.7 nM. Also, in data set [2] (absence of E2), the “Stimulation of DNA by tested compounds % of 1 nM E2 stimulation” value is on record as “N.S”. The “OVX-induced increase in total serum cholesterol levels” value in data set [3] (0.5 mg) was “completely prevented”. The “effect on uterine weight compared to the OVX control animals” value in data set [3] was “no effect”. In addition, the “prevention of body weight increase induced by ovariectomy” value in data set [3] (OVX rats, 0.5 mg) came to 59%. Also, in data set [3] (setting [5]), the Cholesterol is on record as 1.20 ± 0.10 mmol/L, the “Final Body Weight” value was 248 ± 5 g and the “Uterine Weight” value was determined as 162.6 ± 5.2 mg.

Consider LHRH ethylamide diacetate [LHRH-A], for which, in the data set with intact female rats, the “increase of the percentage of body fat” value turned out to be 58%.
